How the values were obtained:
PRC2 [1] = biological target: T1, PRC2 (Homo sapiens, UniProt Q15910); assay type: biochemical; details: mononucleosome substrates; Figure 2C
PRC2 [2] = biological target: T1, PRC2; assay: PRC2 inhibition, scintillation methyltransferase assay with H3; assay type: biochemical; details: peptide 50 μM; substrate peptide 20 μM; 3H-SAM scintillation assay
[3] = biological target: polycomb repressor complex 2 (PRC2) (human (purified from HeLa cells)) (UniProt Q15910)
[4] = biological target: polycomb repressor complex 2 (PRC2) (human (purified from HeLa cells)) (UniProt Q15910); assay: methyltransferase inhibition kinetics
[5] = biological target: polycomb repressor complex 2 (PRC2) (human (purified from HeLa cells)) (UniProt Q15910); remark: listed apart in the source

T1 sequence (Q15910 whole entry): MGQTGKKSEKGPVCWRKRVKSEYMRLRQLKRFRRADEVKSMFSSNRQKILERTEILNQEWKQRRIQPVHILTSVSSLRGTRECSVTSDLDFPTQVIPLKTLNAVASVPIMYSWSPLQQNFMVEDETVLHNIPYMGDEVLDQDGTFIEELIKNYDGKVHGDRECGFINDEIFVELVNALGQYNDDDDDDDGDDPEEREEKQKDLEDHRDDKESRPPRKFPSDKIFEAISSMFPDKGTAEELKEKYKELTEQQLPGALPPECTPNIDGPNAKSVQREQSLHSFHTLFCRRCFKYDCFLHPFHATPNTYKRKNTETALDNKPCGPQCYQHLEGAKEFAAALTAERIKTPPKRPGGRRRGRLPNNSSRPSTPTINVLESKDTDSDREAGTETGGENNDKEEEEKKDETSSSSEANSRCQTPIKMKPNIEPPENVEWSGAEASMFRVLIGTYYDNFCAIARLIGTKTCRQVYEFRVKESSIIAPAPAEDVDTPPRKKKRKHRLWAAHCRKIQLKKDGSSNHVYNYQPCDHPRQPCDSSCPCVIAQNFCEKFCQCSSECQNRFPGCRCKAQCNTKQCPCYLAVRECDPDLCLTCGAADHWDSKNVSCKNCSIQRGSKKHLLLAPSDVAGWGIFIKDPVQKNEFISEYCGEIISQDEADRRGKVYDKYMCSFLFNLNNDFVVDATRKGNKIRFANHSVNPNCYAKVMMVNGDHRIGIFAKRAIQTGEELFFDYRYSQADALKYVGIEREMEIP
T1 sequence (O75530 whole entry partner): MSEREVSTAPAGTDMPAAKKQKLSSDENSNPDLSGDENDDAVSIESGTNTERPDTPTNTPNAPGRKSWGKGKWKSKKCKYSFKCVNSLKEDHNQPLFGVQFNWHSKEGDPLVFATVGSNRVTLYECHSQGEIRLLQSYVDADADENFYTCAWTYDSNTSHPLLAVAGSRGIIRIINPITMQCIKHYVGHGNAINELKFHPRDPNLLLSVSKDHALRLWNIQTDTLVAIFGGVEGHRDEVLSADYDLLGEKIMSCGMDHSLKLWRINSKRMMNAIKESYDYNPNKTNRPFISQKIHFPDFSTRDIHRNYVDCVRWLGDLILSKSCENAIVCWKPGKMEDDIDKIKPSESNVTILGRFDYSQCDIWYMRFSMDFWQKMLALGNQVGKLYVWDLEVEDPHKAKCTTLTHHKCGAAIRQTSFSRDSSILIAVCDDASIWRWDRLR
T1 sequence (Q15022 whole entry partner): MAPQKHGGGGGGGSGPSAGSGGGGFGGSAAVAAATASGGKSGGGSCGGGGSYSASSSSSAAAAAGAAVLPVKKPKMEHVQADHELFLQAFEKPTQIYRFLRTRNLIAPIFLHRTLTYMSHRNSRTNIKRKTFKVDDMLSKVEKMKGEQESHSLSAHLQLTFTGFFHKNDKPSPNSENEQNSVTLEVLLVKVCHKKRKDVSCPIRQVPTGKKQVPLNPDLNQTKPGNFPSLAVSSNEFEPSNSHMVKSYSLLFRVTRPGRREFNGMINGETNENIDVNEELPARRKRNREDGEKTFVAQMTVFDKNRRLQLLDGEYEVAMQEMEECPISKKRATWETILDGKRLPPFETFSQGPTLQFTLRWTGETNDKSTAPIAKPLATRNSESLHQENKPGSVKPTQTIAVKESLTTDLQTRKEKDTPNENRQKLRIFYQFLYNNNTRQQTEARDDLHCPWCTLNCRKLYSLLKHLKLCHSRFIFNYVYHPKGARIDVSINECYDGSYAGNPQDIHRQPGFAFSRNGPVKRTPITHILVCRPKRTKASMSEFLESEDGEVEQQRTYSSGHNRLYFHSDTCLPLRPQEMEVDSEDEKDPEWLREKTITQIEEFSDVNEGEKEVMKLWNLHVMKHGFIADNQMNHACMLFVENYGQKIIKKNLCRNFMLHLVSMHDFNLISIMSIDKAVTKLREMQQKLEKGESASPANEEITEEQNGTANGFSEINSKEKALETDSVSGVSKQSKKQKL
T1 sequence (Q09028 whole entry partner): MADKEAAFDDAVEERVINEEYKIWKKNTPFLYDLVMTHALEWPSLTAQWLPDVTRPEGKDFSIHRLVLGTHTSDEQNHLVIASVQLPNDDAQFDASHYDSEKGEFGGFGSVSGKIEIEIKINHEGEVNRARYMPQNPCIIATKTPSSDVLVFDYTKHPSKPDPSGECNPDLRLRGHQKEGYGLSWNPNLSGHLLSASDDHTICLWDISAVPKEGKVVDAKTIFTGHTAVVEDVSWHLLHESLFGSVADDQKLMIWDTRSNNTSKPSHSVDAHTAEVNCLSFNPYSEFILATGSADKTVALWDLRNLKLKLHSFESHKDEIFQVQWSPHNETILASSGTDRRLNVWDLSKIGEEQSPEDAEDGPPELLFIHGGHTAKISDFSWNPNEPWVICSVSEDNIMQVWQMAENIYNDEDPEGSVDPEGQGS

Substance | inhibition of PRC2 methyltransferase activity, in words (PRC2 [2]) | further results
H3 1-10-GGG-H3 21-37 [compound 39] |  | inhibition by bitopic constructs, in words (PRC2 [1]): outperformed longer linkers
KAARXSAPSTGG [compound 7] | did not provide measurable inhibition | 
KAARXSAPSTGG [compound 3] | complete inhibition | 
KAARXSAPSTGG [compound 8] | did not provide measurable inhibition | 
KAARXSAPSTGG [compound 17] | abolished inhibition | 
KAARXSAPSTGG [compound 5] | modest loss in activity | 
KAARXSAPSTGG [compound 4] | did not provide measurable inhibition | 
H3K27M mutant mononucleosome (from UniProt P84243 1-136) (complex) |  | IC50 of inhibition of PRC2 methylation of mononucleosome substrates [3]: 2.6 nM; Ki [4]: 2.1 nM
KAARXSAPSTGG [compound 16] | modest loss of inhibition | 
H3.3(23-34) peptide 18 (trifluoro-methionine at residue 27) |  | IC50 of inhibition of PRC2 methyltransferase activity (Figure S2A) [5]: 11000 nM

Source: article PMC4183613 (Journal of the American Chemical Society, 2014)
